{"source": "patent US10073099B2", "about": "“Methods and diagnostics for cancer detection and treatment monitoring” (University of New England, priority 2015, dated 2018)", "key": {"[1]": {"assay": "NOHA stability analysis over temperature in extracellular matrix medium of 3D spheroids, LC-MS", "assay_type": "physicochemical", "protocol": "Extracellular matrix medium from cancerous and non-cancerous 3D spheroid (viz., 300 μl/spheroid cell line), that was collected on day 7 after spheroid formation were divided in to six (6) equal volumes of 50 μl each. Each of the 50-μl fractions/spheroid cell lines were incubated at −80° C., −20° C., 4° C., 25° C., 37° C. and 42° C. for 1, 3, 5, 7, 10, 12, and 14 days. At the end of the incubation, NOHA level was monitored by LC-MS (Tables 4.1-4.6).\nThose medium samples that were incubated at higher temperature of 42° C. suffered the most with NOHA stability, which lasted for only 3 days (Table 4.4).\nTables 4.1-4.6: NOHA measurements after incubation at various temperatures"}, "[2]": {"assay": "NOHA stability analysis by ELISA, in vitro medium spiked with NOHA", "assay_type": "physicochemical", "conditions": "medium spiked with 75 pg/ml NOHA", "protocol": "FIG. 6A presents an In Vitro medium NOHA stability analysis based on incubation duration and temperature condition for up to 6 weeks. n=4.\nELISA Method. 50 μl of NOHA standard sample concentration prepared in Locke's buffer (viz., 10 mM HEPES, 5.6 mM KCl, 154 mM NaCl, 5.6 mM glucose, 1.2 mM MgCl2, 2.3 mM CaCl2, pH 7.4) was mixed with 50 μl of primary NOHA antibody serum (at 1:200 dilution, Pierce Thermo Fisher) and incubated for 30 min at 4° C. The mixture was added to a 96 well plate pre-coated with […] (at 100 pg/ml concentration, in Locke's buffer). The plate was then incubated for 1 hour on a plate-rotator at 500 rpm, at 2-8° C. After incubation, the well content was aspirated, and the wells were washed three times with 200 μl ice-cold wash buffer (10 mM phosphate buffer pH 7.4, 150 mM NaCl, 0.05% Tween 20). 100 μl of enzyme conjugated secondary antibody (at 1:20,000 dilution in wash buffer) was added, and incubated for 1 hour on a plate rotator at 500 rpm, at 2-8° C. At the end of this incubation, the wells were washed again three times with 200 μl ice-cold wash buffer. […] The plates were then read at 450 nm, within 10 min after adding stop solution.\nIn vitro medium. To analyze NOHA stability via ELISA assay, medium was spiked with 75 pg/ml of NOHA and NOHA recovery was determined over 6 weeks at different temperatures (viz., −80° C., −20° C., 4° C., 25° C., 37° C. and 42° C.). […]"}, "ER− 3D spheroids": {"tested_on": "ER− 3D spheroids", "assay": "Medium NOHA level of 3D spheroids by ELISA in the presence of inhibitors", "assay_type": "cell-based", "protocol": "FIGS. 8A-8D present an analysis of medium NOHA level by ELISA in the presence or absence of inhibitors.\n(§1) The following inhibitory tests were performed to determine their role (and/or regulatory effect) on extra-tumoral NOHA accumulation. While NOHA is generated by NOS2 during nitric oxide production, it can be utilized in a NOS2 independent mechanism for nitric oxide generation, that could involve myeloperoxidase (MPO) mediated oxidation or cytochrome P450 reductase mediated pathway."}, "[3]": {"tested_on": "MPO, Cytochrome P450 reductase", "assay": "MPO and Cytochrome P450 reductase expression and activity after Arginase activity inhibition", "assay_type": "cell-based", "conditions": "after Arginase activity inhibition with 5 nM ABH", "text": "FIG. 12A and FIG. 12B present analysis of cytochrome P450 reductase; FIG. 12A presents a graph showing expression; FIG. 12B presents a graph showing activity. #, represents significance from ER+ and control groups; and ^, represents significance from ER−[CA] groups. n=4. P<0.01\nFIG. 13A and FIG. 13B present analysis of MPO; FIG. 13A presents a graph showing expression; FIG. 13B presents a graph showing activity. #, represents significance from ER+ and control groups; and ^, represents significance from ER−[CA] groups. n=4. P<0.01.\nas §1, with “pathway. Since NOHA is known to be a strong inhibitor of Arginase, and Arginase increase would favor tumor proliferation, the role of Arginase was also explored.” for “pathway.”"}}, "note": "Counter-ions that a name gives are not always drawn."}
{"smiles": "NC(=NCCC[C@H](N)C(=O)O)NO", "note": "[NOHA, N^w-hydroxy-L-Arginine]", "values": [{"measurement": "degradation or reduction in NOHA level", "setting": "[1]; extracellular matrix medium at 4° C., −20° C., and −80° C., 14-day incubation", "result": "no significant degradation or reduction"}, {"measurement": "duration of stable NOHA monitoring level", "setting": "[1]; medium samples incubated at 25° C.", "result": 12, "unit": "days"}, {"measurement": "duration of NOHA stability", "setting": "[1]; medium samples incubated at 42° C.", "result": 3, "unit": "days"}, {"measurement": "duration of stable NOHA monitoring", "setting": "[1]; medium samples stored at 37° C.", "result": "up to 7 days"}, {"measurement": "period over which NOHA was stable", "setting": "[2]; 4° C. and below (4, −20, −80° C.)", "result": 6, "unit": "week"}, {"measurement": "period over which NOHA maintained stability", "setting": "[2]; 25° C., 37° C. and 42° C.", "result": 1, "unit": "week"}]}
{"smiles": "N[C@@H](CCCCB(O)O)C(=O)O", "note": "[ABH, 2(s)-amino-6-boronohexanoic acid]", "values": [{"measurement": "change in medium NOHA level", "setting": "ER− 3D spheroids; 5 nM ABH, versus absence of ABH", "result": "no significant disease specific or ethnic specific change"}, {"measurement": "increase in Cytochrome P450 reductase expression and activity", "setting": "[3]", "result": "≥ 0.98"}, {"measurement": "increase in MPO expression and activity", "setting": "[3]", "result": "≥ 1.2", "unit": "fold"}]}
{"smiles": "Clc1ccc(COC(Cn2ccnc2)c2ccc(Cl)cc2Cl)c(Cl)c1", "note": "(centres unmarked) [micronazole salt]", "values": [{"measurement": "increase in medium NOHA level", "setting": "ER− 3D spheroids; ER−[AA], 10 μM inhibitor, over a 9 week period", "result": "≥ 0.79", "unit": "fold"}, {"measurement": "NOHA increase in the medium", "setting": "ER− 3D spheroids; ER−[CA], 10 μM inhibitor, over a 9 week period", "result": "≥ 0.42", "unit": "fold"}]}
